Values after ≈ are worked out from the molar mass of the structure shown.
How the values were obtained:
[1] = system: Staphylococcus aureus; assay: Antimicrobial activity against methicillin-resistant Staphylococcus aureus incubated for 18 hrs by serial microdilution method; format: functional
[2] = system: Enterococcus faecalis; assay: Antimicrobial activity against Enterococcus faecalis ATCC 29212 incubated for 18 hrs by serial microdilution method; format: functional; conditions: ATCC 29212, 18 h
[3] = system: Staphylococcus aureus; assay: Antimicrobial activity against MLSB-resistant Staphylococcus aureus incubated for 18 hrs by serial microdilution method; format: functional
[4] = Lipophilicity, log P of the compound in octanol and water incubated for 1 h under shaking condition; format: physicochemical
[5] = system: Enterococcus faecalis; assay: Potency index, ratio of rifaximin MIC to compound MIC for Enterococcus faecalis ATCC 29212; format: functional
[6] = system: Staphylococcus epidermidis; assay: Potency index, ratio of rifampicin MIC to compound MIC for Staphylococcus epidermidis ATCC 49134; format: functional
[7] = system: Staphylococcus aureus; assay: Antimicrobial activity against Staphylococcus aureus ATCC 6538 incubated for 18 hrs by serial microdilution method; format: functional; conditions: ATCC 6538, 18 h
[8] = system: Escherichia coli; assay: Antimicrobial activity against Escherichia coli ATCC 25922 incubated for 18 hrs by serial microdilution method; format: functional; conditions: ATCC 25922, 18 h
[9] = system: Staphylococcus epidermidis; assay: Potency index, ratio of rifaximin MIC to compound MIC for Staphylococcus epidermidis 12228; format: functional
[10] = system: Staphylococcus aureus; assay: Potency index, ratio of rifaximin MIC to compound MIC for Staphylococcus aureus ATCC 6538; format: functional
[11] = system: Staphylococcus epidermidis; assay: Potency index, ratio of rifaximin MIC to compound MIC for Staphylococcus epidermidis ATCC 49134; format: functional
[12] = system: Enterococcus faecalis; assay: Potency index, ratio of rifampicin MIC to compound MIC for Enterococcus faecalis ATCC 29212; format: functional
[13] = system: Staphylococcus epidermidis; assay: Antimicrobial activity against Staphylococcus epidermidis ATCC 49134 incubated for 18 hrs by serial microdilution method; format: functional; conditions: ATCC 49134, 18 h
[14] = system: Staphylococcus aureus; assay: Potency index, ratio of rifampicin MIC to compound MIC for Staphylococcus aureus ATCC 6538; format: functional
[15] = system: Staphylococcus epidermidis; assay: Potency index, ratio of rifampicin MIC to compound MIC for Staphylococcus epidermidis ATCC 12228; format: functional
[16] = Solubility of the compound in water at pH 7 by UV-vis spectrophotometric analysis; format: physicochemical
[17] = system: Staphylococcus epidermidis; assay: Antimicrobial activity against Staphylococcus epidermidis ATCC 12228 incubated for 18 hrs by serial microdilution method; format: functional; conditions: ATCC 12228, 18 h

For `CO[C@H]1/C=C/O[C@@]2(C)Oc3c(C)c(O)c4c(O)c(c(CN5CCC(N6CCC(C(=O)O)CC6)CC5)c(O)c4c3C2=O)NC(=O)/C(C)=C\C=C\[C@H](C)[C@H](O)[C@@H](C)[C@@H](O)[C@@H](C)[C@H](OC(C)=O)[C@@H]1C`, which MIC [1] is on record?
The MIC was 7.8 ng/mL (≈ 0.00846 µM).

And the MIC [2]?
The MIC was 1000 ng/mL (≈ 1.08 µM).

And the MIC [3]?
The MIC was 7.8 ng/mL (≈ 0.00846 µM).

What about the logP at 1 h [4] of the same compound?
The logP at 1 h was -1.34.

And the Ratio [5]?
The Ratio was 8.

What about the Ratio [6] of the same compound?
The Ratio was 8.

And the MIC [7]?
The MIC was 7.8 ng/mL (≈ 0.00846 µM).

And the MIC [8]?
The MIC was > 8000 ng/mL.

And the Ratio [9]?
Its Ratio is 8.

What about the Ratio [10] of the same compound?
The Ratio was 8.

What about the Ratio [11] of the same compound?
The Ratio was 8.

What about the Ratio [12] of the same compound?
The Ratio was 8.

And the MIC [13]?
The MIC was 7.8 ng/mL (≈ 0.00846 µM).

What about the Ratio [14] of the same compound?
Its Ratio is 8.

And the Ratio [15]?
The Ratio was 8.

And the solubility [16]?
The solubility was 70 mg/mL (≈ 75900 µM).

What about the MIC [17] of the same compound?
The MIC was 7.8 ng/mL (≈ 0.00846 µM).

From ChEMBL document CHEMBL4339185 (Eur J Med Chem, 2019)
